Data taken from US7226944B2, “Taxanes having a C7 carbonate substituent” (FSU Research Foundation, Inc., priority 2000, dated 2007).

test system: HCT116; assay: In vitro cytotoxicity measured by the cell colony formation assay; format: cell-based; conditions: HCT116 cells; drug concentration producing 50% inhibition of colony formation; 72 h with drug at 37° C., colonies counted after 7 days; read-out: IN VITRO ID 50 (nm) HCT116
Protocol: Four hundred cells (HCT116) were plated in 60 mm Petri dishes containing 2.7 mL of medium (modified McCoy's 5a medium containing 10% fetal bovine serum and 100 units/mL penicillin and 100 µg/mL streptomycin). The cells were incubated in a CO2 incubator at 37° C. for 5 h for attachment to the bottom of Petri dishes. The compounds identified in Example 2 were made up fresh in medium at ten times the final concentration, and then 0.3 mL of this stock solution was added to the 2.7 mL of medium in the dish. The cells were then incubated with drugs for 72 h at 37° C. At the end of incubation the drug-containing media were decanted, the dishes were rinsed with 4 mL of Hank's Balance Salt Solution (HBSS), 5 mL of fresh medium was added, and the dishes were returned to the incubator for colony formation. The cell colonies were counted using a colony counter after incubation for 7 days.

| Compound | IC50 |
| --- | --- |
| CCOC(=O)O[C@H]1C[C@H]2OC[C@@]2(OC(C)=O)C2[C@H](OC(=O)c3ccccc3)[C@]3(O)C[C@H](OC(=O)[C@H](O)[C@H](C=C(C)C)NC(=O)OCC(C)C)C(C)=C([C@@H](O)C(=O)[C@@]21C)C3(C)C (stereo partly drawn) [Compound 4688] | < 10 nM |
| CCOC(=O)O[C@H]1C[C@H]2OC[C@@]2(OC(C)=O)C2[C@H](OC(=O)c3ccccc3)[C@]3(O)C[C@H](OC(=O)[C@H](O)[C@@H](NC(=O)C=C(C)C)c4ccco4)C(C)=C([C@@H](O)C(=O)[C@@]21C)C3(C)C (stereo partly drawn) [Compound 6151] | < 1 nM |
| CCOC(=O)O[C@H]1C[C@H]2OC[C@@]2(OC(C)=O)C2[C@H](OC(=O)c3ccccc3)[C@]3(O)C[C@H](OC(=O)[C@H](O)[C@@H](NC(=O)OC(C)(C)C)c4cccs4)C(C)=C([C@@H](O)C(=O)[C@@]21C)C3(C)C (stereo partly drawn) [Compound 4234] | < 1 nM |
| CC(=O)O[C@H]1C[C@H]2OC[C@@]2(OC(C)=O)C2[C@H](OC(=O)c3ccccc3)[C@]3(O)C[C@H](OC(=O)[C@H](O)[C@@H](NC(=O)OC(C)(C)C)C4CC4)C(C)=C([C@@H](O)C(=O)[C@@]21C)C3(C)C (stereo partly drawn) [Compound 4555] | < 1 nM |
| COC(=O)O[C@H]1C[C@H]2OC[C@@]2(OC(C)=O)C2[C@H](OC(=O)c3ccccc3)[C@]3(O)C[C@H](OC(=O)[C@H](O)[C@@H](NC(=O)OC(C)(C)C)C4CC4)C(C)=C([C@@H](O)C(=O)[C@@]21C)C3(C)C (stereo partly drawn) [Compound 4566] | < 1 nM |
| CCOC(=O)O[C@H]1C[C@H]2OC[C@@]2(OC(C)=O)C2[C@H](OC(=O)c3ccccc3)[C@]3(O)C[C@H](OC(=O)[C@H](O)[C@@H](NC(=O)c4ccco4)c4cccs4)C(C)=C([C@@H](O)C(=O)[C@@]21C)C3(C)C (stereo partly drawn) [Compound 4304] | < 10 nM |
| CCOC(=O)O[C@H]1C[C@H]2OC[C@@]2(OC(C)=O)C2[C@H](OC(=O)c3ccccc3)[C@]3(O)C[C@H](OC(=O)[C@H](O)[C@@H](NC(=O)OCC(C)C)c4ccoc4)C(C)=C([C@@H](O)C(=O)[C@@]21C)C3(C)C (stereo partly drawn) [Compound 4624] | < 10 nM |
| COC(=O)O[C@H]1C[C@H]2OC[C@@]2(OC(C)=O)C2[C@H](OC(=O)c3ccccc3)[C@]3(O)C[C@H](OC(=O)[C@H](O)[C@@H](NC(=O)OCC(C)C)c4cccs4)C(C)=C([C@@H](O)C(=O)[C@@]21C)C3(C)C (stereo partly drawn) [Compound 4355] | < 1 nM |
| COC(=O)O[C@H]1C[C@H]2OC[C@@]2(OC(C)=O)C2[C@H](OC(=O)c3ccccc3)[C@]3(O)C[C@H](OC(=O)[C@H](O)[C@@H](NC(=O)c4ccco4)c4cccs4)C(C)=C([C@@H](O)C(=O)[C@@]21C)C3(C)C (stereo partly drawn) [Compound 4222] | < 1 nM |
| CCOC(=O)O[C@H]1C[C@H]2OC[C@@]2(OC(C)=O)C2[C@H](OC(=O)c3ccccc3)[C@]3(O)C[C@H](OC(=O)[C@H](O)[C@@H](NC(=O)C=C(C)C)c4cccs4)C(C)=C([C@@H](O)C(=O)[C@@]21C)C3(C)C (stereo partly drawn) [Compound 4164] | < 1 nM |
| C/C=C/C(=O)N[C@@H](c1ccco1)[C@@H](O)C(=O)O[C@H]1C[C@@]2(O)[C@@H](OC(=O)c3ccccc3)C3[C@](C)(C(=O)[C@H](O)C(=C1C)C2(C)C)[C@@H](OC(=O)OCC)C[C@H]1OC[C@@]31OC(C)=O (stereo partly drawn) [Compound 4818] | < 1 nM |
| CC(=O)O[C@@]12CO[C@@H]1C[C@H](OC(=O)OCc1ccccc1)[C@@]1(C)C(=O)[C@H](O)C3=C(C)[C@@H](OC(=O)[C@H](O)[C@@H](NC(=O)C=C(C)C)c4ccco4)C[C@@](O)([C@@H](OC(=O)c4ccccc4)C12)C3(C)C (stereo partly drawn) [Compound 5466] | < 1 nM |
| C/C=C/C(=O)N[C@@H](c1cccs1)[C@@H](O)C(=O)O[C@H]1C[C@@]2(O)[C@@H](OC(=O)c3ccccc3)C3[C@](C)(C(=O)[C@H](O)C(=C1C)C2(C)C)[C@@H](OC(=O)OCC)C[C@H]1OC[C@@]31OC(C)=O (stereo partly drawn) [Compound 4855] | < 1 nM |
| COC(=O)O[C@H]1C[C@H]2OC[C@@]2(OC(C)=O)C2[C@H](OC(=O)c3ccccc3)[C@]3(O)C[C@H](OC(=O)[C@H](O)[C@@H](NC(=O)OCC(C)C)c4ccsc4)C(C)=C([C@@H](O)C(=O)[C@@]21C)C3(C)C (stereo partly drawn) [Compound 4674] | < 1 nM |
| COC(=O)O[C@H]1C[C@H]2OC[C@@]2(OC(C)=O)C2[C@H](OC(=O)c3ccccc3)[C@]3(O)C[C@H](OC(=O)[C@H](O)[C@H](C=C(C)C)NC(=O)OC(C)(C)C)C(C)=C([C@@H](O)C(=O)[C@@]21C)C3(C)C (stereo partly drawn) [Compound 4484] | < 1 nM |
| CCOC(=O)O[C@H]1C[C@H]2OC[C@@]2(OC(C)=O)C2[C@H](OC(=O)c3ccccc3)[C@]3(O)C[C@H](OC(=O)[C@H](O)[C@@H](NC(=O)OC(C)(C)C)C4CC4)C(C)=C([C@@H](O)C(=O)[C@@]21C)C3(C)C (stereo partly drawn) [Compound 5165] | < 1 nM |
| CCOC(=O)O[C@H]1C[C@H]2OC[C@@]2(OC(C)=O)C2[C@H](OC(=O)c3ccccc3)[C@]3(O)C[C@H](OC(=O)[C@H](O)[C@@H](NC(=O)c4cccs4)c4cccs4)C(C)=C([C@@H](O)C(=O)[C@@]21C)C3(C)C (stereo partly drawn) [Compound 4455] | < 1 nM |

| Compound | IC50 |
| --- | --- |
| COC(=O)O[C@H]1C[C@H]2OC[C@@]2(OC(C)=O)C2[C@H](OC(=O)c3ccccc3)[C@]3(O)C[C@H](OC(=O)[C@H](O)[C@@H](NC(=O)C=C(C)C)c4cccs4)C(C)=C([C@@H](O)C(=O)[C@@]21C)C3(C)C (stereo partly drawn) [Compound 4244] | < 1 nM |
| CCOC(=O)O[C@H]1C[C@H]2OC[C@@]2(OC(C)=O)C2[C@H](OC(=O)c3ccccc3)[C@]3(O)C[C@H](OC(=O)[C@H](O)[C@@H](NC(=O)c4ccccc4)c4cccs4)C(C)=C([C@@H](O)C(=O)[C@@]21C)C3(C)C (stereo partly drawn) [Compound 4188] | < 10 nM |
| CCOC(=O)O[C@H]1C[C@H]2OC[C@@]2(OC(C)=O)C2[C@H](OC(=O)c3ccccc3)[C@]3(O)C[C@H](OC(=O)[C@H](O)[C@@H](NC(=O)OC(C)(C)C)c4ccoc4)C(C)=C([C@@H](O)C(=O)[C@@]21C)C3(C)C (stereo partly drawn) [Compound 4464] | < 1 nM |
| COC(=O)O[C@H]1C[C@H]2OC[C@@]2(OC(C)=O)C2[C@H](OC(=O)c3ccccc3)[C@]3(O)C[C@H](OC(=O)[C@H](O)[C@@H](NC(=O)OC(C)(C)C)c4ccco4)C(C)=C([C@@H](O)C(=O)[C@@]21C)C3(C)C (stereo partly drawn) [Compound 4533] | < 1 nM |
| COC(=O)O[C@H]1C[C@H]2OC[C@@]2(OC(C)=O)C2[C@H](OC(=O)c3ccccc3)[C@]3(O)C[C@H](OC(=O)[C@H](O)[C@@H](NC(=O)OC(C)(C)C)c4ccsc4)C(C)=C([C@@H](O)C(=O)[C@@]21C)C3(C)C (stereo partly drawn) [Compound 4474] | < 1 nM |
| C/C=C/C(=O)N[C@@H](c1ccsc1)[C@@H](O)C(=O)O[C@H]1C[C@@]2(O)[C@@H](OC(=O)c3ccccc3)C3[C@](C)(C(=O)[C@H](O)C(=C1C)C2(C)C)[C@@H](OC(=O)OCC)C[C@H]1OC[C@@]31OC(C)=O (stereo partly drawn) [Compound 4999] | < 1 nM |
| C/C=C/C(=O)N[C@@H](c1ccoc1)[C@@H](O)C(=O)O[C@H]1C[C@@]2(O)[C@@H](OC(=O)c3ccccc3)C3[C@](C)(C(=O)[C@H](O)C(=C1C)C2(C)C)[C@@H](OC(=O)OCC)C[C@H]1OC[C@@]31OC(C)=O (stereo partly drawn) [Compound 4904] | < 10 nM |
| C/C=C/C(=O)N[C@@H](c1ccsc1)[C@@H](O)C(=O)O[C@H]1C[C@@]2(O)[C@@H](OC(=O)c3ccccc3)C3[C@](C)(C(=O)[C@H](O)C(=C1C)C2(C)C)[C@@H](OC(=O)OC)C[C@H]1OC[C@@]31OC(C)=O (stereo partly drawn) [Compound 4969] | < 1 nM |
| CC(=O)O[C@H]1C[C@H]2OC[C@@]2(OC(C)=O)C2[C@H](OC(=O)c3ccccc3)[C@]3(O)C[C@H](OC(=O)[C@H](O)[C@@H](NC(=O)OCC(C)C)c4ccsc4)C(C)=C([C@@H](O)C(=O)[C@@]21C)C3(C)C (stereo partly drawn) [Compound 4515] | < 10 nM |
| CCOC(=O)O[C@H]1C[C@H]2OC[C@@]2(OC(C)=O)C2[C@H](OC(=O)c3ccccc3)[C@]3(O)C[C@H](OC(=O)[C@H](O)[C@@H](NC(=O)OCC(C)C)c4ccco4)C(C)=C([C@@H](O)C(=O)[C@@]21C)C3(C)C (stereo partly drawn) [Compound 4696] | < 1 nM |
| C/C=C/C(=O)N[C@@H](c1ccco1)[C@@H](O)C(=O)O[C@H]1C[C@@]2(O)[C@@H](OC(=O)c3ccccc3)C3[C@](C)(C(=O)[C@H](O)C(=C1C)C2(C)C)[C@@H](OC(=O)OC)C[C@H]1OC[C@@]31OC(C)=O (stereo partly drawn) [Compound 4744] | < 1 nM |
| CC(=O)O[C@@]12CO[C@@H]1C[C@H](OC(=O)OCc1ccccc1)[C@@]1(C)C(=O)[C@H](O)C3=C(C)[C@@H](OC(=O)[C@H](O)[C@@H](NC(=O)OC(C)(C)C)c4ccco4)C[C@@](O)([C@@H](OC(=O)c4ccccc4)C12)C3(C)C (stereo partly drawn) [Compound 5433] | < 1 nM |
| CCOC(=O)O[C@H]1C[C@H]2OC[C@@]2(OC(C)=O)C2[C@H](OC(=O)c3ccccc3)[C@]3(O)C[C@H](OC(=O)[C@H](O)[C@@H](NC(=O)OC(C)(C)C)c4ccsc4)C(C)=C([C@@H](O)C(=O)[C@@]21C)C3(C)C (stereo partly drawn) [Compound 4500] | < 1 nM |
| COC(=O)O[C@H]1C[C@H]2OC[C@@]2(OC(C)=O)C2[C@H](OC(=O)c3ccccc3)[C@]3(O)C[C@H](OC(=O)[C@H](O)[C@@H](NC(=O)c4ccccc4)c4cccs4)C(C)=C([C@@H](O)C(=O)[C@@]21C)C3(C)C (stereo partly drawn) [Compound 4411] | < 1 nM |
| C/C=C/C(=O)N[C@@H](c1cccs1)[C@@H](O)C(=O)O[C@H]1C[C@@]2(O)[C@@H](OC(=O)c3ccccc3)C3[C@](C)(C(=O)[C@H](O)C(=C1C)C2(C)C)[C@@H](OC(=O)OCc1ccccc1)C[C@H]1OC[C@@]31OC(C)=O (stereo partly drawn) [Compound 6566] | < 10 nM |
| COC(=O)O[C@H]1C[C@H]2OC[C@@]2(OC(C)=O)C2[C@H](OC(=O)c3ccccc3)[C@]3(O)C[C@H](OC(=O)[C@H](O)[C@@H](NC(=O)OC(C)(C)C)c4ccoc4)C(C)=C([C@@H](O)C(=O)[C@@]21C)C3(C)C (stereo partly drawn) [Compound 4434] | < 1 nM |
